Assays:
HT-29 [1] = experiment: Intracellular GSH level, monochlorobimane (MCB) probe; assay type: cell-based, human; details: compound at IC50, 24 h, vs control
Procedure: The spectrofluorimetric method with monochlorobimane (MCB; Sigma-Aldrich; St. Louis, MO, USA) was used to determine GSH. Monochlorobimane reacts with glutathione in a reaction catalyzed by cellular glutathione S-transferase. The reaction produces a fluorescent bimane-glutathione conjugate (GSH-MCB). A major advantage of MCB is its ability to penetrate the cell membrane, which is why it is used as a probe to determine the amount of GSH in living cells.
Cells were seeded in black 96-well fluorometric microplates at a density of 10 × 10^3 cells/mL. […] Following compound incubation, the medium was removed, and the cell monolayers were washed twice with HBSS (140 mM NaCl, 5 mM KCl, 0.8 mM MgCl2, 1.8 mM CaCl2, 1 mM Na2HPO4, 10 mM HEPES, and 1% glucose). A solution of MCB at a final concentration of 40 μM was added to each well and incubated in a CO2 cell culture incubator at 37 °C for 20 min. A 40 mM MCB stock solution was prepared by dissolving 9 mg of the reagent in 1 mL of absolute ethanol. Fluorescence was measured using a Perkin-Elmer LS-5B spectrofluorometer (Waltham, MA, USA) at the following excitation and fluorescence emission wavelengths: λex = 380 nm/λem = 470 nm. After incubation with MCB, the cells were lysed with 50 μL of lysis buffer (10 mM TRIS-HCl; pH 8 containing 0.1% Triton X-100). In order to normalize the number of cells in individual samples, the amount of DNA was determined by adding 50 μL of ethidium bromide (EB, final concentration 0.2 mM) to each well after measuring the MCB fluorescence and measuring the EB fluorescence at an excitation wavelength of λex = 530 nm and an emission wavelength of λem = 590 nm. The results obtained using the standard curve were converted to nM of GSH.

HT-29 [2] = experiment: Superoxide anion level, DHE probe; assay type: cell-based, human; details: compound at IC50, 24 h, vs control
Procedure: Superoxide anion (O2^•−) levels were quantified using a microplate spectrofluorometric assay with dihydroethidium (DHE) (Life Technologies, Carlsbad, CA, USA). DHE is a well-established fluorogenic probe for intracellular superoxide detection. […] The reaction between superoxide and DHE produces a highly specific red fluorescent product, 2-hydroxyethidium (2-OH-E ^+).
Cells were seeded in black 96-well fluorometric microplates at a density of 10 × 10^3 cells/mL. […] Following compound incubation, the medium was removed, and the cell monolayers were washed twice with HBSS (140 mM NaCl, 5 mM KCl, 0.8 mM MgCl2, 1.8 mM CaCl2, 1 mM Na2HPO4, 10 mM HEPES, and 1% glucose). A volume of 50 µL of DHE solution in HBSS (final concentration 5 μM) was added to each well, and the cells were incubated for 30 min in the dark at 37 °C. After incubation with the DHE, fluorescence measurements were conducted using a Perkin-Elmer LS-5B spectrofluorometer (Waltham, MA, USA) at the following excitation and fluorescence emission wavelengths: λex = 498 nm/λem = 582 nm. The fluorescence intensity of control cells was arbitrarily assigned a value of 100%. The results were expressed as percentages of control, calculated by comparing the fluorescence intensity ratio of the test samples to controls (100%). The fluorescence of samples was denoted as Δf in relation to the control.

HCT 116 = experiment: MTT cell viability assay; assay type: cell-based; details: Homo sapiens, 24 h incubation with compound, mean ± SD of three experiments, read-out: Cytotoxic effect, IC50
Procedure: The cytotoxic activity of the 3-benzylideneflavanones, 3-benzylidenechromanones derivatives (compounds 1, 2, 3, 4, 5) and 5′-(3-methoxyphenyl)-2-phenyl-4′,5′-dihydro-4H-spiro[chromano-3,3′-pirazol]-4-one (compound 3a) was evaluated using the MTT assay (4,5-dimethylthiazol-2-yl)-2,5-diphenyltetrazoliumbromide), a colorimetric method that quantifies cell viability.
Cell viability was determined using the metabolic microplate spectrophotometric assay with Methylthiazolyl diphenyltetrazolium bromide (MTT) (Sigma-Aldrich; St. Louis, MO, USA). The MTT method belongs to metabolic tests for determining cell viability and consists of measuring the absorbance of a violet solution of formazan, a product of the reduction of a water-soluble yellow MTT by oxidoreductive enzymes (mainly mitochondrial succinate dehydrogenase) of living cells. The amount of the reaction product (water-insoluble formazan crystals) is proportional to the number of living and metabolically active cells in the sample. In the case of damaged or dead cells, formazan is formed in smaller amounts, or it is not formed.
The appropriate number of cells for a given cell line (6–8 × 10^3 cells/mL) were seeded onto colorless, sterile 96-well microplates (Nunc, Roskilde, Denmark) in the number appropriate for a given cell line. After 24 h of culture, various concentrations of the studied compounds (10^−7–10^−5 M) freshly prepared in DMSO (final concentration DMS < 0.1%) and diluted with complete culture medium were added and incubated in a CO2 incubator for 24 h. After this time, the medium was removed; the cell monolayer was washed twice with sterile PBS solution; and fresh culture medium was added to the microplate wells. After 48 h of cell culture, the MTT test was performed. A volume of 50 μL of tetrazolium salt solution (final concentration 0.05 mg/mL) was added to each microplate well. The microplate was placed for 3–4 h (depending on the cell line) in a CO2 incubator. After incubation, 100 μL of DMSO was added to the wells of the microplate to dissolve the purple formazan crystals formed in the living cell environment. The absorbance of the formazan solution, after gentle mixing, was read at a wavelength of λ = 580 nm and a reference wavelength of λ = 720 nm (Biotek Power Wave HT, Biotek Instruments, Winooski, VT, USA). The percentage of living cells was calculated by comparing the absorbance value of the tested samples with the absorbance value of the control (cells not treated with compounds). The absorbance of the control was taken as 100%.

LoVo = experiment: MTT test after pre-incubation with antioxidants NAC or Trolox; assay type: cell-based, human; details: vs cells without antioxidant pre-incubation
Procedure: Moreover, the elevation of ROS levels was accompanied by a decrease in intracellular GSH. To investigate the role of ROS in the cytotoxic activity of flavonoid derivatives against cancer cells, LoVo cancer cells were pre-treated with antioxidants, NAC or a water-soluble derivative of vitamin E (Trolox), for 1 h before exposure to the studied compounds. Subsequently, the MTT assay was performed.
To elucidate the involvement of ROS in the cytotoxic effects of the investigated compounds, cells were pre-treated with the vitamin E (Trolox, Sigma-Aldrich, St. Louis, MO, USA) or N-Acetylcysteine (NAC) antioxidants for 1 h. Cells were seeded into sterile, colorless 96-well microplates at a density of 6–8 × 10^3 cells/mL, contingent upon the cell line. Following a 24 h culture period, Trolox or NAC was added at a final concentration of 50 μM and 3 mM, respectively. After 1 h of incubation, the antioxidants were removed by washing, and test compounds were administered at appropriate concentrations (10–200 μM) in fresh cell culture medium, followed by a 24 h incubation. The MTT assay was then conducted under identical experimental conditions, as detailed in Section 2.2.

## O=C1/C(=C/c2ccccc2)COc2ccccc21 [Compound 1]
HT-29 [1]
  Decrease in GSH levels: 25–30%
HT-29 [2]
  Increase in O2−• (superoxide anion) levels: approximately 40%
HCT 116
  IC50: 10.1 ± 1.3 µM

## COc1cccc(/C=C2/C(=O)c3ccccc3OC2c2ccccc2)c1 (centres unmarked) [Compound 3]
HCT 116
  IC50: 18.6 ± 1.4 µM
LoVo
  Change of the IC50 value after pre-incubation with Trolox: Statistically significant increases in the IC50 value

## O=C1/C(=C/c2ccccc2)C(c2ccccc2)Oc2ccccc21 (centres unmarked) [Compound 5]
HT-29 [1]
  Decrease in GSH levels: 25–30%
HT-29 [2]
  Increase in O2−• (superoxide anion) levels: ~35%
LoVo
  Change of the IC50 value after pre-incubation with Trolox: Statistically significant increases in the IC50 value
